PubChem BioAssay (NCI)
“And” between values parts separate entries of the source, which are not always exact repeats. Equal entries are not always repeated.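 These data come from cells grown in 96-well plates and exposed to compound for 48 hours at five concentrations. GI50 is the concentration that inhibits growth by half. The concentration for full growth arrest is given as TGI.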

Tests used:
Assay in all cases: inhibition of tumour cell growth, NCI panel, 48 h
OVCAR-5 ovarian = system: OVCAR-5 ovarian
BT-549 breast = system: BT-549 breast
LOX IMVI melanoma = system: LOX IMVI melanoma
U251 CNS = system: U251 CNS
SF-539 CNS = system: SF-539 CNS
ACHN renal = system: ACHN renal
HCT-15 colon = system: HCT-15 colon
SF-268 CNS = system: SF-268 CNS
HT29 colon = system: HT29 colon
CAKI-1 renal = system: CAKI-1 renal

| Structure (SMILES) | GI50 (OVCAR-5 ovarian) [µM] | TGI (OVCAR-5 ovarian) | GI50 (BT-549 breast) [µM] | TGI (BT-549 breast) | GI50 (LOX IMVI melanoma) [µM] | TGI (LOX IMVI melanoma) [µM] | GI50 (U251 CNS) | TGI (U251 CNS) | GI50 (SF-539 CNS) [µM] | TGI (SF-539 CNS) | GI50 (ACHN renal) [µM] | TGI (ACHN renal) | TGI (HCT-15 colon) [µM] | GI50 (SF-268 CNS) | TGI (SF-268 CNS) [µM] | GI50 (HT29 colon) [µM] | TGI (HT29 colon) | GI50 (CAKI-1 renal) | TGI (CAKI-1 renal) | GI50 (HCT-15 colon) [µM] |
| --- | --- | --- | --- | --- | --- | --- | --- | --- | --- | --- | --- | --- | --- | --- | --- | --- | --- | --- | --- | --- |
| Nc1nc(N)c(N=O)c(OCC2CCCCC2)n1 | 17.2 | > 100 µM and 57.8 µM | 4.8 | 61 µM and > 84.9 µM | 4.77 | > 100 | 13.9 µM | > 100 µM and 52.5 µM | 15.6 | 56.1 µM and 36.5 µM | 5.47 | > 100 µM and 34.3 µM | > 100 | 5.82 µM | > 95.4 | 6.88 | > 100 µM and 74.2 µM | 3.99 µM | 34 µM and 78.9 µM | – |
| O=C(c1cccnc1)c1cc(-c2ccccn2)c(=O)n2ccccc12 | > 100 | > 100 µM | > 100 | > 100 µM | > 100 | > 100 | > 100 µM | > 100 µM | > 100 | > 100 µM | > 100 | > 100 µM | > 100 | > 100 µM | > 100 | > 100 | > 100 µM | > 100 µM | > 100 µM | > 100 |
| OCC1OC(n2cnc3c(=S)nc[nH]c32)C(O)C1O (stereo not drawn) | 3.79 | > 2500 µM | 62.7 | > 2500 µM | 0.705 | > 2500 | 58.3 µM | > 2500 µM | 3.3 | > 2500 µM | 4.87 | > 2500 µM | > 2500 | > 23.9 µM | > 2500 | 4.72 | > 2500 µM | 6.94 µM | > 2500 µM | 6.62 |
| O=C(CCCSc1nc(-c2ccccc2)cc(-c2ccc(Cl)cc2)n1)NO | 2.12 | 8.48 µM | 3.46 | 17.6 µM | 0.414 | 1.87 | 1.66 µM | 12.7 µM | 1.61 | 4.06 µM | 0.399 | 4.38 µM | 13.5 | 1.88 µM | 7.14 | 2.47 | 13.2 µM | 0.355 µM | 9.36 µM | 0.382 |
| O=C(CN1CCN(c2ccccc2)CC1)N1CCN(c2nnc(-c3ccc(Cl)cc3)c(-c3ccc(Cl)cc3)n2)CC1 | > 100 | > 100 µM | 4.34 | 63.6 µM | 11.5 | 41.4 | 8.16 µM | 31 µM | 5.91 | > 100 µM | 5.59 | > 100 µM | > 100 | 14.9 µM | > 100 | 4.04 | 24 µM | 13.5 µM | > 100 µM | 6.35 |
| CCN(CC)c1ccc(C(=N)c2ccc(N(C)C)cc2)cc1 | 2.04 | 6.78 µM | 0.227 | 0.966 µM | 1.21 | 7.22 | 1.33 µM | 7.57 µM | 1.63 | 4.18 µM | 2.34 | 12 µM | 7.93 | 0.22 µM | 5.42 | 0.0399 | 4.02 µM | 0.246 µM | 7.73 µM | 0.17 |
| c1ccc(CSc2nnc3c4ccccc4c4ccccc4c3n2)cc1 | – | > 100 µM | – | > 100 µM | – | > 100 | – | > 100 µM | – | > 100 µM | – | > 100 µM | > 100 | – | 67.9 | – | > 100 µM | – | > 100 µM | – |
| c1ccc(P(CCP(CCP(c2ccccc2)c2ccccc2)c2ccccc2)CCP(c2ccccc2)c2ccccc2)cc1 (stereo not drawn) | – | > 10 µM | – | > 10 µM | – | 2.84 | > 10 µM and 1.04 µM | > 10 µM | – | > 10 µM and 9.84 µM | > 10 | > 10 µM | > 10 | > 10 µM and 3.71 µM | > 10 | – | > 10 µM | > 10 µM and 3 µM | > 10 µM | – |
| Nc1n[nH]c2ccc([C@@H]3Nc4ccc5[nH]ncc5c4[C@H]4C5C=CC(C5)[C@@H]34)cc12 (stereo partly drawn) | 0.586 | 30.3 µM | 0.32 | 7.05 µM | 0.443 | 11.8 | 0.433 µM | 22.2 µM | 0.271 | 1.1 µM | 0.562 | 47.8 µM | 13.5 | 1.36 µM | 31.5 | 0.357 | 28.7 µM | 0.23 µM | 21.6 µM | 0.316 |
